Values of other authors, collected in article PMC10145264, “Synthesis and Biological Properties of EGFR-Targeted Photosensitizer Based on Cationic Porphyrin” (Pharmaceutics, 2023).

What was measured:
[1] = set-up: method as in PMID 24063545; settings: standard value
[2] = set-up: method as in doi:10.1016/j.chemphys.2006.07.040, doi:10.1007/BF03356111, doi:10.1016/j.jphotochemrev.2020.100401; settings: standard value

Compound: C1=Cc2nc1c(-c1ccccc1)c1ccc([n-]1)c(-c1ccccc1)c1nc(c(-c3ccccc3)c3ccc([n-]3)c2-c2ccccc2)C=C1.[Zn+2] [ZnTPP, zinc tetraphenylporphyrin]
- singlet oxygen quantum yield (ΦΔ) [1]: 0.74
- fluorescence quantum yield (ΦF) [2]: 0.033
